This note sets out measurements from ChEMBL document CHEMBL4476877, “Treatment of COPD, gastro-esophageal reflux disease (GERD), food allergies and other gastrointestinal conditions and disorders ameliorated by proper histamine management using a combination of histidine decarboxylase inhibitors, LRA drugs, anti-H1 and/or anti-H2 drugs” (2012).

Molecules are shown by their SMILES.

Type in all cases: functional
Experiment [1] is filed under the species Homo sapiens. The experiment is described as follows: Improvement in disease symptoms in patient with COPD assessed as TEV level at 200 mg/day co-treated with 10 mg/day Loratadine and measured after 6 months by spirometry (reference value: 1.4 L/secs).
For experiment [2], the species on record is Homo sapiens. In words: Improvement in disease symptoms in patient with COPD assessed as TEV level at 200 mg/day co-treated with 10 mg/day Loratadine and measured after 12 months by spirometry (reference value: 1.8 L/secs).
Experiment [3] is filed under the species Homo sapiens. The experiment is described as follows: Improvement in disease symptoms in patient with COPD assessed as TEV level at 200 mg/day co-treated with 10 mg/day Loratadine and measured after 6 months by spirometry (reference value: 1.8 L/secs).
For experiment [4], the species on record is Homo sapiens. In words: Improvement in disease symptoms in patient with COPD assessed as TEV level at 200 mg/day co-treated with 10 mg/day Loratadine and measured after 8 months by spirometry (reference value: 1.4 L/secs).
For experiment [5], the species on record is Homo sapiens. In words: Improvement in disease symptoms in patient with COPD assessed as TEV level at 200 mg/day co-treated with 10 mg/day Loratadine and measured after 6 months by spirometry (reference value: 1.2 L/secs).
For experiment [6], the species on record is Homo sapiens. The experiment is described as follows: Improvement in disease symptoms in patient with COPD assessed as TEV level at 200 mg/day co-treated with 10 mg/day Loratadine and measured after 12 months by spirometry (reference value: 1.5 L/secs).
The species named for experiment [7] is Homo sapiens. In words: Improvement in disease symptoms in patient with COPD assessed as TEV level at 200 mg/day co-treated with 10 mg/day Loratadine and measured after 10 months by spirometry (reference value: 0.4 L/secs).
The species named for experiment [8] is Homo sapiens. The experiment is described as follows: Improvement in disease symptoms in patient with COPD assessed as TEV level at 200 mg/day co-treated with 10 mg/day Loratadine and measured after 6 weeks by spirometry (reference value: 1.5 L/secs).
For experiment [9], the species on record is Homo sapiens. In words: Improvement in disease symptoms in patient with COPD assessed as TEV level at 200 mg/day co-treated with 10 mg/day Loratadine and measured after 6 months by spirometry (reference value: 0.4 L/secs).
Experiment [10] concerns Homo sapiens. In words: Improvement in disease symptoms in GERD patient assessed as improvement in disease symptoms at 200 mg dosed daily co-treated with 10 mg anti-H1 drug loratadine dosed daily relative to control.
The species entered for experiment [11] is Homo sapiens. In words: Improvement in disease symptoms in patient with COPD assessed as TEV level at 200 mg/day co-treated with 10 mg/day Loratadine and measured after 6 weeks by spirometry (reference value: 0.4 L/secs).
The species named for experiment [12] is Homo sapiens. In words: Improvement in disease symptoms in patient with COPD assessed as increase in TEV level at 200 mg/day co-treated with 10 mg/day Loratadine and measured after 10 months by spirometry relative to untreated control.
For experiment [13], the species on record is Homo sapiens. In words: Improvement in disease symptoms in patient with COPD assessed as TEV level at 200 mg/day co-treated with 10 mg/day Loratadine and measured after 6 weeks by spirometry (reference value: 1.2 L/secs).
Experiment [14] is filed under the species Homo sapiens. In words: Improvement in disease symptoms in patient with COPD assessed as TEV level at 200 mg/day co-treated with 10 mg/day Loratadine and measured after 6 weeks by spirometry (reference value: 1.8 L/secs).
For experiment [15], the system named is Homo sapiens. In words: Improvement in disease symptoms in GERD patient assessed as improvement in disease symptoms at 200 mg dosed daily co-treated with 10 mg anti-H1 drug loratadine dosed daily and 150 mg anti-H2 drug Ranitidine dosed daily.
The species named for experiment [16] is Homo sapiens. In words: Improvement in disease symptoms in patient with COPD assessed as TEV level at 200 mg/day co-treated with 10 mg/day Loratadine and measured after 6 weeks by spirometry relative to control.
For experiment [17], the species on record is Homo sapiens. The experiment is described as follows: Improvement in disease symptoms in patient with COPD assessed as TEV level at 200 mg/day co-treated with 10 mg/day Loratadine and measured after 6 months by spirometry (reference value: 1.5 L/secs).
The species entered for experiment [18] is Homo sapiens. The experiment is described as follows: Improvement in disease symptoms in patient with COPD assessed as TEV level at 200 mg/day co-treated with 10 mg/day Loratadine and measured after 6 weeks by spirometry (reference value: 1.4 L/secs).
Experiment [19] is filed under the species Homo sapiens. In words: Improvement in disease symptoms in patient with COPD assessed as increase in TEV level at 200 mg/day co-treated with 10 mg/day Loratadine and measured after 8 months by spirometry relative to untreated control.

For `CCOc1c(N)c2c(c(OCC)c1OCC)C(C1c3c(cc4c(c3OC)OCO4)CCN1C)OC2=O` (centres undefined) [TRITOQUALINE], the Activity is listed as 2.1 L/s in the experiment filed under Homo sapiens [1]; 2.6 L/s in the experiment filed under Homo sapiens [2]; 2.1 L/s in the experiment filed under Homo sapiens [3]; 2.4 L/s in the experiment listed under Homo sapiens [4]; 1.9 L/s in the experiment filed under Homo sapiens [5]; 2 L/s in the experiment listed under Homo sapiens [6]. Besides, the Activity in the experiment filed under Homo sapiens [7] is recorded as 0.9 L/s; in the experiment filed under Homo sapiens [8], 1.7 L/s; in the experiment listed under Homo sapiens [9] it was 0.8 L/s; in the experiment on Homo sapiens [10], 82.9%; in the experiment listed under Homo sapiens [11] it was 0.6 L/s; in the experiment filed under Homo sapiens [12], 125%. Moreover, the Activity in the experiment listed under Homo sapiens [13] came out at 1.8 L/s; in the experiment filed under Homo sapiens [14] it was 2.1 L/s; with Homo sapiens [15] it was 209.5%; in the experiment listed under Homo sapiens [16], 71.4%; in the experiment filed under Homo sapiens [17] it was 1.9 L/s; in the experiment listed under Homo sapiens [18] it was 1.7 L/s. The Activity in the experiment listed under Homo sapiens [19] came out at 71.4%.
